Results: US11564394B2, “Distorted gold (I)-phosphine complexes and methods for use as antifungal agents” (University of Kentucky Research Foundation, priority 2019, dated 2023)

Key:
[1] = system: C. albicans ATCC MYA-1003(R) (strain A); assay type: cell-based, Candida albicans; details: strain A = C. albicans ATCC MYA-1003(R); MIC-0; 48 h at 35° C.
[2] = system: C. auris AR Bank # 0390 (strain L) biofilm; assay type: cell-based, Candida auris; details: treated at 0 h, XTT
[3] = system: C. auris AR Bank # 0387 (strain VI); test: MIC determination (broth microdilution); assay type: cell-based, Candida auris; details: strain VI = C. auris AR Bank # 0387; MIC-0; 48 h (CAS read at 24 h)
[4] = system: C. albicans ATCC 10231 (strain B) biofilm; test: Prevention of biofilm formation (XTT); assay type: cell-based, Candida albicans; details: treated at 0 h, 90% decrease in metabolic activity (XTT)
[5] = system: C. albicans ATCC 10231 (strain B) pre-formed biofilm; test: Disruption of pre-formed biofilm (XTT); assay type: cell-based, Candida albicans
[6] = system: C. auris AR Bank # 0388 (strain VII); test: MIC determination (broth microdilution); assay type: cell-based, Candida auris; details: strain VII = C. auris AR Bank # 0388; MIC-0; 48 h (CAS read at 24 h)
[7] = system: C. auris AR Bank # 0389 (strain VIII); test: MIC determination (broth microdilution); assay type: cell-based, Candida auris; details: strain VIII = C. auris AR Bank # 0389; MIC-0; 48 h (CAS read at 24 h)
[8] = system: C. neoformans ATCC MYA-85 (strain M); test: MIC determination (broth microdilution); assay type: cell-based, Cryptococcus neoformans; details: strain M = C. neoformans ATCC MYA-85; MIC-0; 72 h at 35° C.
[9] = system: C. glabrata ATCC 2001 (strain H) biofilm; test: Prevention of biofilm formation (XTT); assay type: cell-based, Candida glabrata; details: treated at 0 h
[10] = system: C. albicans ATCC 10231(R) (strain B); assay type: cell-based, Candida albicans
[11] = system: C. neoformans CN3 (strain P); test: MIC determination (broth microdilution); assay type: cell-based, Cryptococcus neoformans; details: MIC-0, 72 h at 35° C.
[12] = system: C. neoformans CN2 (strain O); test: MIC determination (broth microdilution); assay type: cell-based, Cryptococcus neoformans; details: MIC-0, 72 h at 35° C.
[13] = system: C. albicans ATCC 90819(R) (strain G); assay type: cell-based, Candida albicans; details: strain G = C. albicans ATCC 90819(R); MIC-0; 48 h; listed as printed without letter, below G
[14] = system: C. parapsilosis ATCC 22019 (strain J); test: MIC determination (broth microdilution); assay type: cell-based; details: strain J = C. parapsilosis ATCC 22019; MIC-0; 48 h; listed as printed beside letter K
[15] = system: C. glabrata ATCC 2001 (strain H); test: MIC determination (broth microdilution); assay type: cell-based, Candida glabrata; details: strain H = C. glabrata ATCC 2001; MIC-0; 48 h at 35° C.
[16] = system: C. albicans ATCC MYA-1237(R) (strain C); assay type: cell-based, Candida albicans; details: strain C = C. albicans ATCC MYA-1237(R); MIC-0; 48 h; listed as printed beside letter D
[17] = system: C. auris AR Bank # 0383 (strain III); test: MIC determination (broth microdilution); assay type: cell-based, Candida auris; details: strain III = C. auris AR Bank # 0383; MIC-0; 48 h (CAS read at 24 h)
[18] = system: fungal strains (Candida spp., Cryptococcus spp., Aspergillus spp., Fusarium spp.); test: MIC determination, summary statements over the strain panel; assay type: cell-based
[19] = system: A. nidulans ATCC 38163 (strain Q); test: MIC determination (broth microdilution); assay type: cell-based, Aspergillus nidulans; details: strain Q = A. nidulans ATCC 38163; MIC-0; 72 h at 35° C.
[20] = system: C. auris AR Bank # 0384 (strain K) pre-formed biofilm; assay type: cell-based, Candida auris; details: biofilm treated at 24 h, XTT
[21] = system: C. auris AR Bank # 0382 (strain II); test: MIC determination (broth microdilution); assay type: cell-based, Candida auris; details: strain II = C. auris AR Bank # 0382; MIC-0; 48 h (CAS read at 24 h)
[22] = system: F. graminearum 053 (strain T); assay type: cell-based, Fusarium graminearum; details: strain T = F. graminearum 053; MIC-0; room temperature, 5 days
[23] = system: C. glabrata ATCC 2001 (strain H) pre-formed biofilm; test: Disruption of pre-formed biofilm (XTT); assay type: cell-based, Candida glabrata
[24] = system: C. krusei ATCC 6258 (strain I); test: MIC determination (broth microdilution); assay type: cell-based; details: strain I = C. krusei ATCC 6258; MIC-0; 48 h; listed as split over r16 and r17 (r17 printed beside letter J)

## bis-[1,2-bis[(2S,5S)-2,5-dimethylphospholano]benzene]gold(I) [Compound 4]
[1]
  MIC: 0.98 µg/mL
  MIC (in parentheses): 1.2 µM
[2]
  Biofilm prevention SMIC90: 3.9 µg/mL
[3]
  MIC: 1.95 µg/mL
  MIC (in parentheses): 2.3 µM
[4]
  Biofilm prevention SMIC90: 3.9 µg/mL
[5]
  SMIC90 of pre-formed biofilm relative to MIC with planktonic cells: 4 fold
[5]; biofilm treated at 24 h, XTT
  Pre-formed biofilm SMIC90: 7.8 µg/mL
[6]
  MIC: 1.95 µg/mL
  MIC (in parentheses): 2.3 µM
[7]
  MIC: 1.95 µg/mL
  MIC (in parentheses): 2.3 µM
[8]
  MIC: 0.98 µg/mL
  MIC (in parentheses): 1.2 µM
[9]
  Biofilm prevention SMIC90: 3.9 µg/mL
[10]
  MIC: 1.95 (2.3) μg/mL
  MIC (in parentheses): 1.95 (2.3) μM
[11]
  MIC: 0.98 µg/mL
  MIC (in parentheses): 1.2 µM
[12]
  MIC: 0.98 µg/mL
  MIC (in parentheses): 1.2 µM
[13]
  MIC: 0.98 µg/mL
  MIC (in parentheses): 1.2 µM
[14]
  MIC: 0.98 µg/mL
  MIC (in parentheses): 1.2 µM
[15]
  MIC: 1.95 µg/mL
  MIC (in parentheses): 2.3 µM
[16]
  MIC: 0.98 µg/mL
  MIC (in parentheses): 1.2 µM
[17]
  MIC: 1.95 µg/mL
  MIC (in parentheses): 2.3 µM
[18]; panel of twenty fungal strains (Table 1)
  overall assessment as antifungals: great promise
[18]; two C. auris strains (K and L)
  antifungal activity class: good (MIC = 3.9-7.8 μg/mL (good antifungal activity))
[19]
  MIC: 3.9 µg/mL
  MIC (in parentheses): 4.6 µM
[20]
  Pre-formed biofilm SMIC90: 7.8 µg/mL
[21]
  MIC: 1.95 µg/mL
  MIC (in parentheses): 2.3 µM
[22]
  MIC: 3.9 µg/mL
  MIC (in parentheses): 4.6 µM
[23]
  SMIC90 of pre-formed biofilm relative to MIC with planktonic cells: 4 fold
[23]; biofilm treated at 24 h, XTT
  Pre-formed biofilm SMIC90: 7.8 µg/mL
[24]
  MIC: 1.95 µg/mL
  MIC (in parentheses): 2.3 µM
